According to patent US7655677B2, “Composition and method for controlling house insect pest” (priority 2002, dated 2010):

Columns and labels:
Assay type in all cases: in vivo
Lasius japonicus = experiment: Test Example 23: skim milk poison bait placed near ant nest, number of ants passing the gate per minute; conditions: 0.2% (W/W) bait, ants through the gate per minute
Source text: 2 g of this poison bait chemical was placed directly on an optional ground surface distanced by about 50 cm from the gate of the ant nest. Before, 2 days after, 3 days after and 5 days after placing the poison bait chemical, the number of ants going out and coming in through the gate per minute was examined.

Coptotermes formosanus [1] = experiment: Test Example 24: treated filter paper in Petri dish, termite mortality on 21st or 28th day; conditions: 21st day
Protocol: (§1) Mortality (%)=(Number of dead termite workers/15 termite workers)×100
(§2) Further, by the Colby's formula, the theoretical value (%) of mortality can be calculated. In a case where the actual mortality (%) is higher than the theoretical value (%), it can be said that the composition of the present invention has a synergistic effect for controlling the house insect pest.
A filter paper having a diameter of 80 mm was placed in a plastic Petri dish, and 1 ml of a pesticide solution having a predetermined concentration was dropped thereon, whereupon 10 termite workers (Coptotermes formosanus) were released, and a cover was put on the Petri dish. This plastic Petri dish was put in a container having wet cotton laid over the bottom and maintained at room temperature of 25° C. On 21 or 28th day after the treatment, the number of dead termites in the Petri dish was examined, and the mortality was calculated in the same manner as Test Example 1.

Reticulitermes speratus [2] = experiment: Test Example 16: pulp (KIMUTAORU) poison bait, termite mortality after 18 days; conditions: pulp (KIMUTAORU) bait 0.1%
Source text: Fresh pulp (2 cm×2 cm×0.1 cm) was immersed in a methanol solution of a sample compound. Then, it was dried to obtain a fresh pulp poison bait chemical containing 0.1% of the sample compound. This poison bait chemical was placed in a cylindrical cup made of acrylic resin (i.e. a cup having a hole with a diameter of 10 mm formed in the bottom and having hard plaster (Dental Stone) set at the bottom in a thickness of 10 mm), and 20 termite workers (Reticulitermes speratus) were released thereon. The cup was placed in a container having wet cotton laid over the bottom, and the container was maintained at room temperature of 25° C. for 18 days, whereupon the number of dead termites in the cup was examined, and the mortality was calculated.
A test was carried out in the same manner as the above Test Example 15 except that fresh pulp was changed to pulp (KIMUTAORU, tradename, manufactured by CRECIA Co.).

Coptotermes formosanus [3] = experiment: Test Example 17: dust placed in ant trail, termite mortality with time; conditions: 0.5% dust, 10 mg in ant trail
Protocol: Soil was packed in a cylindrical connection section made of an acrylic resin connecting two cups made of acrylic resin (i.e. cups each having a hole with a diameter of 10 mm formed in the bottom and having hard plaster (Dental Stone) set at the bottom in a thickness of 10 mm), and 30 termite workers and 3 termite soldiers (Coptotermes formosanus) were released to let them form an ant trail. Then, at the center portion of the ant trail, 10 mg of a dust prepared by mixing in a mortar 0.5 part by weight of a sample compound and 99.5 parts by weight of cellulose powder, was placed. This test apparatus was put into a container having wet cotton laid over the bottom and kept at room temperature of 25° C., whereby the number of dead termites in the cup was examined as the time passed, and the mortality was calculated. Further, for the purpose of comparison, a similar test was carried out with respect to a dust containing 0.5% of fipronil (Terminal Dust, tradename, manufactured by Aventis Crop Science Shionogi K.K.).

Coptotermes formosanus [4] = experiment: Test Example 20: treated sandy soil, termite mortality and abnormal ratio with time
Protocol: Sandy soil passed through a sieve of 20 mesh, was dried at a temperature of 60° C. to a constant weight, and 4 g of the soil thus obtained, was packed into a cup having a diameter of 60 mm. 1 ml of a pesticide solution adjusted to a predetermined concentration was added and thoroughly mixed, whereupon 15 termite workers (Coptotermes formosanus) were leased. The cup was placed in a container having wet cotton laid over the bottom, and the container was maintained at room temperature of 25° C., whereby the number of dead termites in the cup was examined as the time passed, and the mortality was calculated.

Reticulitermes speratus [5] = experiment: Test Example 3: treated filter paper in Petri dish, termite mortality after 37 days
Protocol: as §1, §2
A filter paper having a diameter of 80 mm was placed in a plastic Petri dish, and 1 ml of a pesticide solution having a predetermined concentration, was dropped thereon. After the treatment, the solvent was sufficiently evaporated, and then, 1 ml of distilled water was impregnated to the treated filter paper, whereupon 10 termite workers (Reticulitermes speratus) were released. The plastic Petri dish was placed in a container having wet cotton laid over the bottom, and the container was maintained at 25° C. for 37 days, whereupon the number of dead termites in the Petri dish was examined, and the mortality was calculated in the same manner as in Test Example 1.

[6] = 1000 ppm solution, 4 Days later

CC(=NN=C(Cc1ccc(C(F)(F)F)cc1)c1ccc(F)cc1)N(C)C [Compound No. II-2, [4′-fluoro-2-(4-trifluoromethylphenyl)acetophenone]N′-[1-(dimethylamino)ethylidene]hydrazone]
Ants passing the nest gate per minute (Lasius japonicus; 2 Days later): 11
Ants passing the nest gate per minute (Lasius japonicus; 3 Days later): 3
Ants passing the nest gate per minute (Lasius japonicus; 5 Days later): 0
Ants passing the nest gate per minute (Lasius japonicus; Before placing poison bait chemical): 153
Mortality (Coptotermes formosanus [1]; II-2 5 ppm alone): 0%
Mortality (Coptotermes formosanus [1]; II-2 10 ppm alone): 20%
Mortality (Coptotermes formosanus [1]; II-2 20 ppm alone): 60%
Mortality (Reticulitermes speratus [2]): 100%
Mortality (Coptotermes formosanus [3]; 6 Days later): 37%
Mortality (Coptotermes formosanus [3]; 11 Days later): 100%
Mortality (Coptotermes formosanus [3]; 15 Days later): 100%
Mortality (Coptotermes formosanus [4]; 250 ppm solution, 1 Day later): 0%
Mortality (Coptotermes formosanus [4]; 250 ppm solution, 4 Days later): 0%
abnormal ratio (Coptotermes formosanus [4]; 250 ppm solution, 4 Days later): 7%
Mortality (Coptotermes formosanus [4]; 250 ppm solution, 11 Days later): 100%
Mortality (Coptotermes formosanus [4]; 1000 ppm solution, 1 Day later): 0%
Mortality (Coptotermes formosanus [4]; [6]): 73%
abnormal ratio (Coptotermes formosanus [4]; [6]): 27%
Mortality (Coptotermes formosanus [4]; 1000 ppm solution, 11 Days later): 100%
Mortality (Coptotermes formosanus [4]; 4000 ppm solution, 1 Day later): 0%
abnormal ratio (Coptotermes formosanus [4]; 4000 ppm solution, 1 Day later): 100%
Mortality (Coptotermes formosanus [4]; 4000 ppm solution, 4 Days later): 100%
Mortality (Coptotermes formosanus [4]; 4000 ppm solution, 11 Days later): 100%
Mortality (Reticulitermes speratus [5]; II-2 5 ppm alone): 10%
Mortality (Reticulitermes speratus [5]; II-2 10 ppm alone): 20%
